# Source: ChEMBL document CHEMBL3045722, “Synthesis, calcium-channel blocking activity, and conformational analysis of some novel 1,4-dihydropyridines: application of PM3 and DFT computational methods” (Med Chem Res, 2012)
# Target: Voltage-dependent L-type calcium channel subunit alpha-1C (Cavia porcellus, UniProt O35505)
# Test: Antagonist activity at Cavia porcellus albino (guinea pig) calcium channel assessed as inhibition of KCl-induced ileal longitudinal smooth muscle contraction
# Voltage-dependent L-type calcium channel subunit alpha-1C, sequence (O35505 whole entry): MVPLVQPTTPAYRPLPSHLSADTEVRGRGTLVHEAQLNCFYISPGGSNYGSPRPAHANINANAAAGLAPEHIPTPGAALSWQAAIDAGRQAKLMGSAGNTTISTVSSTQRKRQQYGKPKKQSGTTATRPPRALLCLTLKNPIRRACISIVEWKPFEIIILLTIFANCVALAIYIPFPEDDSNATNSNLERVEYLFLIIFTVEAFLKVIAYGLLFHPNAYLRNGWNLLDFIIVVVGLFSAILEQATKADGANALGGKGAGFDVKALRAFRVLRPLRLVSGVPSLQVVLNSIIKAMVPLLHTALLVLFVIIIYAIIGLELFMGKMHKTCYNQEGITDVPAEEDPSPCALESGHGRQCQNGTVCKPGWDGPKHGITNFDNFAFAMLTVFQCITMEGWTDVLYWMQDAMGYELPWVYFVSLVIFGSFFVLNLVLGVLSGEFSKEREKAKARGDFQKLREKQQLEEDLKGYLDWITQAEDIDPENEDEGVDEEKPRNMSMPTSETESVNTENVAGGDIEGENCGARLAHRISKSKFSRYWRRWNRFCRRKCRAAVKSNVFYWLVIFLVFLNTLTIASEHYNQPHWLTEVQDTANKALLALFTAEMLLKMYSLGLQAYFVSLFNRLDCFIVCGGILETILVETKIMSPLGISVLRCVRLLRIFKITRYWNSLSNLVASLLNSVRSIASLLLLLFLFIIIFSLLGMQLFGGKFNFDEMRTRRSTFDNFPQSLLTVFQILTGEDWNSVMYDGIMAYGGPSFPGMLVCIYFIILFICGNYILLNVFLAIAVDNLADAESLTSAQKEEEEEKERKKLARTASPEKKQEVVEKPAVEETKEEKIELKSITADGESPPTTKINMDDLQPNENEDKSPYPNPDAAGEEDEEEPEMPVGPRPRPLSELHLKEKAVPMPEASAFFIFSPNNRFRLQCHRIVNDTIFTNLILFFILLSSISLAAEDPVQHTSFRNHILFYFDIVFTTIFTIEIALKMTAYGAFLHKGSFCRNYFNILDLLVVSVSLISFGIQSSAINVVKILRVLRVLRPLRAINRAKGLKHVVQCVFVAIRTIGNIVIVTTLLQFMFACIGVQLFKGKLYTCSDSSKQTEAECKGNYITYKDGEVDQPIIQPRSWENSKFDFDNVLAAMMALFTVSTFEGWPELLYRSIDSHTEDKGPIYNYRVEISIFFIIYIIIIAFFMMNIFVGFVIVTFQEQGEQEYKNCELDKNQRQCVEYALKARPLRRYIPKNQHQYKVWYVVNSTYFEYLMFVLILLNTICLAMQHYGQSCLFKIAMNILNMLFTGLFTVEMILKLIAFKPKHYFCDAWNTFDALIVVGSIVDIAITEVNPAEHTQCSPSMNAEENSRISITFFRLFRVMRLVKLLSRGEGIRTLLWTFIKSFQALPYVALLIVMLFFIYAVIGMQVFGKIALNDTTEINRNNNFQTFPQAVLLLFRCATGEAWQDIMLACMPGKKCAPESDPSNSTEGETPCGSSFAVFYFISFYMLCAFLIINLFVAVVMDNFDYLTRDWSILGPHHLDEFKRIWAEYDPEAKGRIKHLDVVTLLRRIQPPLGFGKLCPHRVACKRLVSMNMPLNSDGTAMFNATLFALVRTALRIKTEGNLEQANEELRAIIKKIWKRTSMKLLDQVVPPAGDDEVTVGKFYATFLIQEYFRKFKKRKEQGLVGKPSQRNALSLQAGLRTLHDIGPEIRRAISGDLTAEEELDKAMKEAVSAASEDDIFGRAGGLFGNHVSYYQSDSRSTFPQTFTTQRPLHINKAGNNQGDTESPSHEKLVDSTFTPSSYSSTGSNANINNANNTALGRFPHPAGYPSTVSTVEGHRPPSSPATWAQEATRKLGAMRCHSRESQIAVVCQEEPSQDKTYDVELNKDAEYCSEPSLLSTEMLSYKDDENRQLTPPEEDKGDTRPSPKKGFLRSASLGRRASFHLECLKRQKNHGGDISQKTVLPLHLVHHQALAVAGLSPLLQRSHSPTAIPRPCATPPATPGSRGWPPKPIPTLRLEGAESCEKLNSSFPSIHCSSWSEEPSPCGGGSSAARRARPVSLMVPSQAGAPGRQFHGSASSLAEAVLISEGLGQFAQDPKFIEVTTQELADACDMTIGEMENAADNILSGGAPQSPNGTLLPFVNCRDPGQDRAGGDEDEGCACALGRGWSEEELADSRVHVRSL
row,IC50,SMILES
1,3.22 nM,CCOC(=O)C1=C(C)NC(C)=C(C(=O)OC(C)C)C1c1cnc(SC)n1Nc1ccccc1 (stereo not drawn)
2,2.54 nM,CCOC(=O)C1=C(C)NC(C)=C(C(=O)OCCCc2ccccc2)C1c1cnc(SC)n1Nc1ccccc1 (stereo not drawn)
3,121 nM,CSc1ncc(C2C(C(=O)OC(C)(C)C)=C(C)NC(C)=C2C(=O)OC(C)(C)C)n1Nc1ccccc1
4,2.91 nM,CCOC(=O)C1=C(C)NC(C)=C(C(=O)OCCOC)C1c1cnc(SC)n1Nc1ccccc1 (stereo not drawn)
5,2.79 nM,CSc1ncc(C2C(C(=O)OCCc3ccccc3)=C(C)NC(C)=C2C(=O)OCCc2ccccc2)n1Nc1ccccc1
6,7.24 nM,CSc1ncc(C2C(C(=O)OCc3ccccc3)=C(C)NC(C)=C2C(=O)OC(C)C)n1Nc1ccccc1 (stereo not drawn)
7,68.2 nM,CSc1ncc(C2C(C(=O)OC(C)C)=C(C)NC(C)=C2C(=O)OC(C)(C)C)n1Nc1ccccc1 (stereo not drawn)
8,621 nM,CSc1ncc(C2C(C(=O)OCC3CCCCC3)=C(C)NC(C)=C2C(=O)OCC2CCCCC2)n1Nc1ccccc1
9,17.9 nM,COCCOC(=O)C1=C(C)NC(C)=C(C(=O)OCCOC)C1c1cnc(SC)n1Nc1ccccc1
10,3.15 nM,CSc1ncc(C2C(C(=O)OCCCc3ccccc3)=C(C)NC(C)=C2C(=O)OCCCc2ccccc2)n1Nc1ccccc1
11,1.66 nM,CCOC(=O)C1=C(C)NC(C)=C(C(=O)OC)C1c1cnc(SC)n1Nc1ccccc1 (stereo not drawn)
12,6.35 nM,COC(=O)C1=C(C)NC(C)=C(C(=O)OC(C)C)C1c1cnc(SC)n1Nc1ccccc1 (stereo not drawn)
13,1.86 nM,CCOC(=O)C1=C(C)NC(C)=C(C(=O)OCc2ccccc2)C1c1cnc(SC)n1Nc1ccccc1 (stereo not drawn)
14,2.4 nM,CCCOC(=O)C1=C(C)NC(C)=C(C(=O)OC)C1c1cnc(SC)n1Nc1ccccc1 (stereo not drawn)
15,2.29 nM,CCCOC(=O)C1=C(C)NC(C)=C(C(=O)OCCC)C1c1cnc(SC)n1Nc1ccccc1
16,6.22 nM,CSc1ncc(C2C(C(=O)OCCCc3ccccc3)=C(C)NC(C)=C2C(=O)OC(C)C)n1Nc1ccccc1 (stereo not drawn)
17,6.71 nM,CSc1ncc(C2C(C(=O)OCC(C)C)=C(C)NC(C)=C2C(=O)OCC(C)C)n1Nc1ccccc1
18,56 nM,CSc1ncc(C2C(C(=O)OCC3CCCCC3)=C(C)NC(C)=C2C(=O)OC(C)C)n1Nc1ccccc1 (stereo not drawn)
19,3.05 nM,COC(=O)C1=C(C)NC(C)=C(C(=O)OCCCc2ccccc2)C1c1cnc(SC)n1Nc1ccccc1 (stereo not drawn)
20,3.54 nM,COC(=O)C1=C(C)NC(C)=C(C(=O)OC)C1c1cnc(SC)n1Nc1ccccc1
21,465 nM,CSc1ncc(C2C(C(=O)OC3CCCCC3)=C(C)NC(C)=C2C(=O)OC2CCCCC2)n1Nc1ccccc1
22,53.4 nM,COCCOC(=O)C1=C(C)NC(C)=C(C(=O)OC(C)C)C1c1cnc(SC)n1Nc1ccccc1 (stereo not drawn)
23,1.49 nM,CSc1ncc(C2C(C(=O)OCc3ccccc3)=C(C)NC(C)=C2C(=O)OCc2ccccc2)n1Nc1ccccc1
24,1.69 nM,CCOC(=O)C1=C(C)NC(C)=C(C(=O)OCC)C1c1cnc(SC)n1Nc1ccccc1
25,2.16 nM,CSc1ncc(C2C(C(=O)OC(C)C)=C(C)NC(C)=C2C(=O)OC(C)C)n1Nc1ccccc1
26,9.65 nM,COCCOC(=O)C1=C(C)NC(C)=C(C(=O)OC)C1c1cnc(SC)n1Nc1ccccc1 (stereo not drawn)
27,2.21 nM,COC(=O)C1=C(C)NC(C)=C(C(=O)OCc2ccccc2)C1c1cnc(SC)n1Nc1ccccc1 (stereo not drawn)
28,425 nM,CSc1ncc(C2C(C(=O)OC3CCCC3)=C(C)NC(C)=C2C(=O)OC2CCCC2)n1Nc1ccccc1
